Measurements published in ChEMBL document CHEMBL1201862, “PubChem BioAssay data set” (2004).
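Five concentrations, 48 hours, 96-well plates. GI50 is the concentration that inhibits growth by half.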 The source made the active and inactive calls. No stated cut-off is given here; in the data, active = GI50 up to about 1.1 µM and inactive = higher.

Columns and labels:
Assay in all cases: NCI tumour cell line growth inhibition, 48 h
K562 = test system: K562
MDA-MB-435 = test system: MDA-MB-435
SK-OV-3 = test system: SK-OV-3
SK-MEL-2 = test system: SK-MEL-2
LOX IMVI = test system: LOX IMVI
NCI-H226 = test system: NCI-H226
SW-620 = test system: SW-620
MOLT-4 = test system: MOLT-4
CAKI-1 = test system: CAKI-1
BT-549 = test system: BT-549
HCT-15 = test system: HCT-15
SF-539 = test system: SF-539
HCC 2998 = test system: HCC 2998
Malme-3M = test system: Malme-3M
M14 = test system: M14
NCI-H23 = test system: NCI-H23
HCT-116 = test system: HCT-116
ACHN = test system: ACHN
786-0 = test system: 786-0
SK-MEL-28 = test system: SK-MEL-28
EKVX = test system: EKVX
SF-295 = test system: SF-295
TK-10 = test system: TK-10
CCRF-CEM = test system: CCRF-CEM
RXF 393 = test system: RXF 393
MDA-N = test system: MDA-N
HT-29 = test system: HT-29
OVCAR-8 = test system: OVCAR-8
SF-268 = test system: SF-268
UO-31 = test system: UO-31
PC-3 = test system: PC-3
U-251 = test system: U-251
UACC-62 = test system: UACC-62
HOP-62 = test system: HOP-62
Hs-578T = test system: Hs-578T
SK-MEL-5 = test system: SK-MEL-5
A498 = test system: A498
OVCAR-4 = test system: OVCAR-4
DU-145 = test system: DU-145
SR = test system: SR
NCI/ADR-RES = test system: NCI/ADR-RES
OVCAR-5 = test system: OVCAR-5
OVCAR-3 = test system: OVCAR-3
A549 = test system: A549
UACC-257 = test system: UACC-257
SN12C = test system: SN12C
KM12 = test system: KM12
IGROV-1 = test system: IGROV-1
NCI-H522 = test system: NCI-H522
SNB-19 = test system: SNB-19
T47D = test system: T47D
COLO 205 = test system: COLO 205
NCI-H460 = test system: NCI-H460
MDA-MB-231 = test system: MDA-MB-231
MCF7 = test system: MCF7
SNB-75 = test system: SNB-75
RPMI-8226 = test system: RPMI-8226
HL-60 = test system: HL-60

Measured: GI50

Cc1cc(S(=O)(=O)n2ccnc2O)c(SCCCN(C)C)cc1Cl
> 100 µM: HCT-15
inactive: K562 > 100 µM | MDA-MB-435 > 100 µM | SK-OV-3 > 100 µM | SK-MEL-2 > 100 µM | LOX IMVI > 100 µM | NCI-H226 > 100 µM | SW-620 > 100 µM | MOLT-4 > 100 µM | CAKI-1 > 100 µM | BT-549 > 100 µM | SF-539 > 100 µM | HCC 2998 > 100 µM | Malme-3M > 100 µM | M14 > 100 µM | NCI-H23 > 100 µM | HCT-116 > 100 µM | ACHN > 100 µM | 786-0 > 100 µM | SK-MEL-28 > 100 µM | EKVX > 100 µM | SF-295 > 100 µM | TK-10 > 100 µM | CCRF-CEM > 100 µM | RXF 393 > 100 µM | MDA-N > 100 µM | HT-29 > 100 µM | OVCAR-8 > 100 µM | SF-268 > 100 µM | UO-31 > 100 µM | PC-3 > 100 µM | U-251 > 100 µM | UACC-62 > 100 µM | HOP-62 > 100 µM | Hs-578T > 100 µM | SK-MEL-5 > 100 µM | A498 > 100 µM | OVCAR-4 > 100 µM | DU-145 > 100 µM | SR > 100 µM | NCI/ADR-RES > 100 µM | OVCAR-5 > 100 µM | OVCAR-3 > 100 µM | A549 > 100 µM | UACC-257 > 100 µM | SN12C > 100 µM | KM12 > 100 µM | IGROV-1 > 100 µM | NCI-H522 > 100 µM | SNB-19 > 100 µM | T47D > 100 µM | COLO 205 > 100 µM | NCI-H460 > 100 µM | MDA-MB-231 > 100 µM | MCF7 > 100 µM

CCOC(=O)Cc1c(C(=O)OCC)[n+]([O-])c2cc(Cl)c(Cl)cc2[n+]1[O-]
active: SR 0.336 µM | RPMI-8226 0.431 µM | IGROV-1 1.01 µM | T47D 0.982 µM
inactive: K562 2.62 µM | MDA-MB-435 2.77 µM | SK-OV-3 3.77 µM | SK-MEL-2 2.59 µM | LOX IMVI 2 µM | SNB-75 1.53 µM | SW-620 1.52 µM | MOLT-4 1.56 µM | CAKI-1 2.97 µM | BT-549 2.45 µM | SF-539 2.08 µM | HCC 2998 1.99 µM | Malme-3M 1.4 µM | M14 2.29 µM | NCI-H23 2.18 µM | HCT-116 1.77 µM | ACHN 1.76 µM | 786-0 1.54 µM | SK-MEL-28 4.68 µM | EKVX 3.37 µM | SF-295 3.66 µM | TK-10 1.28 µM | CCRF-CEM 3.13 µM | RXF 393 2.12 µM | MDA-N 2.62 µM | HT-29 1.94 µM | OVCAR-8 2.34 µM | SF-268 2.44 µM | UO-31 1.77 µM | PC-3 2.1 µM | U-251 2.96 µM | UACC-62 2.18 µM | HOP-62 1.95 µM | Hs-578T 2.27 µM | SK-MEL-5 1.47 µM | A498 2.31 µM | OVCAR-4 1.89 µM | DU-145 1.69 µM | NCI/ADR-RES 2.78 µM | OVCAR-5 2.58 µM | OVCAR-3 1.87 µM | A549 1.76 µM | UACC-257 2.22 µM | SN12C 2.49 µM | HL-60 2.81 µM | KM12 1.32 µM | NCI-H522 1.84 µM | SNB-19 3.5 µM | COLO 205 1.73 µM | NCI-H460 1.45 µM | MDA-MB-231 2.69 µM | MCF7 1.57 µM
1.42 µM: HCT-15
